From ChEMBL document CHEMBL5046245, “Identification of Pyruvate Carboxylase as the Cellular Target of Natural Bibenzyls with Potent Anticancer Activity against Hepatocellular Carcinoma via Metabolic Reprogramming” (J Med Chem, 2022)
Calls of active or inactive are those of the source. The rule behind the calls is not given here.

Columns and labels:
[1] = Inhibition of pyruvate carboxylase in human HepG2 cell lysate measured upto 24 hrs by PC assay kit; type: subcellular
HepG2 [2] = experiment: Antiproliferative activity against human HepG2 cells assessed as inhibition of cell growth measured after 48 hrs by MTT assay; type: functional, cell-based; settings: HepG2, 48 h
HepG2 [3] = experiment: Inhibition of pyruvate carboxylase in human HepG2 cells measured at 10 nM upto 24 hrs; type: cell-based; settings: time hrs <=24
HCCLM3 [4] = experiment: Inhibition of mitochondrial oxidative stress in PC knockout human HCCLM3 cells assessed as reduction in […] ratio at 10 nM; type: functional, cell-based
SK-HEP1 = experiment: Inhibition of mesenchymal transition in human SK-HEP1 cells overexpressing PC assessed as effect on vimentin expression; type: functional, cell-based
HCCLM3 [5] = experiment: Induction of glycolysis in human HCCLM3 cells assessed as decrease in level of malate at 5 nM; type: functional, cell-based
[6] = Systemic toxicity in NCR-nu/nu mouse bearing human HCCLM3 tumor assessed as pathological change in lung at 25 to 50 mg/kg, ip administered alternate days for 21 days and measured 26 days post implantation by H and E staining based analysis; type: organism-based; settings: in vivo, 504 h, dose 25-50 mg/kg, time 21 day
MHCC97 = experiment: Antiproliferative activity against human MHCC97 cells assessed as inhibition of cell growth measured after 48 hrs by MTT assay; type: functional, cell-based; settings: MHCC97, 48 h
HCCLM3 [7] = experiment: Induction of apoptosis in human HCCLM3 cells transfected with PC-flag plasmid assessed as reduction in cell viability at 20 to 100 nM incubated for 24 hrs by MTT assay; type: functional, cell-based; settings: dose 20-100 nM

IC50 [1]: 7.18 nM | IC50 (HepG2 [2]): 99.3 nM
SMILES: COc1ccc(CCc2cc(OC)c(OC)c(OC)c2)cc1O
inhibition (HepG2 [3]): inactive | inhibition (HCCLM3 [4]): Active | inhibition (SK-HEP1): inactive | Activity (HCCLM3 [5]): Active | Activity [6]: Non-Toxic | IC50 (MHCC97): 386 nM | Activity (HCCLM3 [7]): inactive
